Measurements reported in patent US20240018123A1, “COMPOUND FOR INHIBITING OR DISINTEGRATING ANDROGEN RECEPTOR, AND PHARMACEUTICAL USE THEREOF” (KOREA RESEARCH INSTITUTE OF CHEMICAL TECHNOLOGY, priority 2020, published 2024).
Where two headings read alike, the source gives them in different places.

Legend:
[1] = biological target: T1, Androgen receptor (AR) (Homo sapiens, UniProt P10275, T878A); assay: Assessment of AR proteolytic activity (Western blotting of LNCap cell lysates); assay type: cell-based; settings: 24 hours of treatment, Western blotting quantified with Image J
T1 construct: 5.5×10^5 LNCap cells were injected into each well of a 6-well plate; endogenous in cells; host or cells: LNCaP
T1 sequence (P10275 1-920 T878A): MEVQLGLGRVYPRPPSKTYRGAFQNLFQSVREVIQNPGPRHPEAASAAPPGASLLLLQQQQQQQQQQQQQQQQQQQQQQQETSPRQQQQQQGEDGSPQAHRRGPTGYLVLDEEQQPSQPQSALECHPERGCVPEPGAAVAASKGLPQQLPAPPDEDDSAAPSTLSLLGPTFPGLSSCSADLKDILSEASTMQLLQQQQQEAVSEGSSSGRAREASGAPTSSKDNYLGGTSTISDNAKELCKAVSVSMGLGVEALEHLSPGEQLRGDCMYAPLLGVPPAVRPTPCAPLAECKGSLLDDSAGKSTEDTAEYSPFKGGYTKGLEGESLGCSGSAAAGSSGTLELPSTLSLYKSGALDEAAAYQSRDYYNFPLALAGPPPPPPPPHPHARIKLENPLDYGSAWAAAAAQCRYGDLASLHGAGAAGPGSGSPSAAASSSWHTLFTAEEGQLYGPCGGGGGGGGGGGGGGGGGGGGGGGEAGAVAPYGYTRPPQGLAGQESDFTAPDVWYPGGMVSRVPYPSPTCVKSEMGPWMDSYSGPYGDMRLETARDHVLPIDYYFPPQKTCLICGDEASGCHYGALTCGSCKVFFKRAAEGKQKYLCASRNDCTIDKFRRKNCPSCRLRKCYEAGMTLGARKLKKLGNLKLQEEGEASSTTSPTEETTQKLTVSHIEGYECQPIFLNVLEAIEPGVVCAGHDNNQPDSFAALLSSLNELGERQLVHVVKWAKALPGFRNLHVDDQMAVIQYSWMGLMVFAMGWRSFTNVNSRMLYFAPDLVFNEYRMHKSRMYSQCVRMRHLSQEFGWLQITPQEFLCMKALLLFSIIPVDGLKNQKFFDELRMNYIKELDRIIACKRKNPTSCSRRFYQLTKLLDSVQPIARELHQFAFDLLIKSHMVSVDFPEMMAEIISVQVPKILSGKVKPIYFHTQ
Method in brief: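 AR degradation read by Western blot densitometry on RIPA lysates (pH 7.5, protease inhibitor cocktail). Lysates came from LNCap cells, 5.5×10^5 per well, exposed to compound for 24 hours.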

[2] = tested on: LNCaP cells; assay: Cytotoxicity assessment (Cell-titer-glo cell viability), LNCaP; settings: read-out: LNCAP (CC50); LNCaP cells, 6 days of treatment, Cell-titer-glo, vs DMSO
Experimental: (§1) In order to evaluate the androgen receptor (AR) cytotoxicity of the compounds according to the present invention, the following experiment was conducted. Specifically, 1.5×10^3 (LNCaP) or 4×10^3 (VCaP, 22RV1), respectively, of LNCaP, VCaP, and 22RV1 cells were injected into each well of a 96-well plate. The next day, each well was treated with the compound at a final concentration of 3 nM, 10 nM, 30 nM, 100 nM, 300 nM, 1 μM, 3 μM, and 10 μM. […] After 6 days of treatment, Cell-titer-glo (promega) was treated and reacted for 10 minutes, and cell viability was measured with a multimode plate reader (PerkinElmer, Inc.), and the change was quantified compared to when DMSO was treated.

[3] = tested on: 22RV1 cells; assay: Cytotoxicity assessment (Cell-titer-glo cell viability), 22RV1; assay type: cell-based
Experimental: as §1

[4] = tested on: LNCaP cells
Experimental: as §1

Degradation (1 μM treated in LNCaP, % AR remaining) [1] | Structure (SMILES) | CC50 [2] | CC50 ([3]; 22RV1 cells, 6 days of treatment, Cell-titer-glo, vs DMSO, read-out: 22RV1 (CC50)) | CC50 [4] | CC50 [3]
58% | CC1(C)[C@H](NC(=O)c2ccc(OCCOCCOCCOCCOCCOCCCNc3cccc4nnn(C5CCC(=O)NC5=O)c(=O)c34)cc2)C(C)(C)[C@H]1Oc1ccc(C#N)c(Cl)c1 (single isomer, unassigned) [Example 4, N-((1r,3r)-3-(3-chloro-4-cyanophenoxy)-2,2,4,4-tetramethylcyclobutyl)-4-((18-((3-(2,6-dioxopiperidin-3-yl)-4-oxo-3,4-dihydrobenzo[d][1,2,3]triazin-5-yl)amino)-3,6,9,12,15-pentaoxaoctadecyl)oxy)benzamide] |  |  | 5.32 µM | 4.46 µM
47% | CC1(C)[C@H](NC(=O)c2ccc(OCCOCCOCCOCCOCCOCCCNc3cccc4nnn(C5CCC(=O)NC5=O)c(=O)c34)cc2)C(C)(C)[C@H]1Oc1ccc(C#N)c(Cl)c1 (single isomer, unassigned) [Example 3, N-((1r,3r)-3-(3-chloro-4-cyanophenoxy)-2,2,4,4-tetramethylcyclobutyl)-4-((18-((3-(2,6-dioxopiperidin-3-yl)-4-oxo-3,4-dihydrobenzo[d][1,2,3]triazin-5-yl)amino)-3,6,9,12,15-pentaoxaoctadecyl)oxy)benzamide] |  |  | 2.98 µM | 0.43 µM

Structure (SMILES) | Degradation (1 μM treated in LNCaP, % AR remaining) [1] | CC50 [2] | CC50 ([3]; 22RV1 cells, 6 days of treatment, Cell-titer-glo, vs DMSO, read-out: 22RV1 (CC50)) | CC50 [4] | CC50 [3]
CC1(C)C(NC(=O)c2ccc(OCCOCCOCCOCCOCCOCCOCCCCNc3cccc4nnn(C5CCC(=O)NC5=O)c(=O)c34)cc2)C(C)(C)C1Oc1ccc(C#N)c(Cl)c1 (stereo not drawn) [Example 6, N-((1r,3r)-3-(3-chloro-4-cyanophenoxy)-2,2,4,4-tetramethylcyclobutyl)-4-((22-((3-(2,6-dioxopiperidin-3-yl)-4-oxo-3,4-dihydrobenzo[d][1,2,3]triazin-5-yl)amino)-3,6,9,12,15,18-hexaoxadocosyl)oxy)benzamide] | 66% | 5.93 µM | 7.1 µM |  | 
